In patent US11707500B2, “Growth promoting peptides, and uses thereof” (NURITAS LIMITED, priority 2015, dated 2023):

Assays:
[1] = system: elastic fibers of the dermis, human skin tissue explants; assay: Morphometric quantification of elastic fibers (elastin expression) in skin explants; format: cell-based; details: test items applied twice per day, 5 μL per explant, peptides 20 μM (Peptide 8 10 μM), compositions 500 μg/mL, EGF 10 ng/mL
Protocol: (§1) Skin explants were prepared from abdominal plastic surgery. Some explants were delipidated with alcohol to obtain a dehydrated skin.
(§2) These explants were maintained in maintenance medium supplied by the provider Bioprédic International for 5 days. Test items are applied twice per day with 5 μL per explant.
For each time of analysis (D1 and D5), histologies on delipidated explants, treated explants with test items, the DMSO 0.3% control and water control, are performed.
(§3) After receipt in the laboratory, each skin explant in the maintenance medium is delipidated with 5 μL alcohol during 3 hours.
(§4) After 3 hours, all skin explants are treated two per day with test items, and they are incubated at 37° C.+/−2° C., 5% CO2 for 1 day or 5 days. Integrity of the system is realized at day 1 and day 5 with a viability control with MTT.
Histology is realized by the laboratory Gredeco and the immunostaining to elastin and Ki67 are realized by the same laboratory. Immunostaining to filaggrin is realized by the laboratory Intertek.
The immunohistochemical staining intensity in the elastic fibers is evaluated using a semi-quantitative histological score.
The percentage area taken up by elastic fibers in the dermis was calculated in the dermis and the average superficial dermis.

[2] = system: keratinocytes of the basal layer of the epidermis, human skin tissue explants; assay: Ki67 immunohistochemistry (mitotic index) in skin explants; format: cell-based; details: for % of Ki67 positive cells in the basal layer of the epidermis: peptides 20 μM (Peptide 8 10 μM), compositions 500 μg/mL, EGF 10 ng/mL; for number of mitotic cells compared to EGF at day 1: day 1, compared to EGF
Protocol: as §1, §2, §3, §4
Epithelial proliferation was analyzed by immunohistochemistry using anti-Ki67 antibody.
Counting the number of labeled cells (keratinocytes of the basal layer of the epidermis) is performed and provides the total number of basal cells to calculate the % of labeled cells.
The results of the immunohistochemical analysis of Ki67 are reported in Table 4 and expressed as % of labelled at the basal layer of the epidermis. […] Immunohistochemical analysis of mitotic activity is shown in annex 4 with a reminder of the average for each analysed conditions.

SKPHTIFLPQHTDADYILVVLSGK [0723.08]
Morphometric quantification of elastic fibers in the middle dermis (%) ([1]; D 1): 3.52%
Morphometric quantification of elastic fibers in the superficial dermis (%) ([1]; D 1): 2.7%
Morphometric quantification of elastic fibers in the middle dermis (%) ([1]; D 5): 7.27%
Morphometric quantification of elastic fibers in the superficial dermis (%) ([1]; D 5): 5.32%
% of Ki67 positive cells in the basal layer of the epidermis ([2]; D 1): 27.83%
% of Ki67 positive cells in the basal layer of the epidermis ([2]; D 5): 5.72%
number of mitotic cells compared to EGF at day 1 [2]: an increase

TVFDGVLRPGQL [0723.06]
Morphometric quantification of elastic fibers in the middle dermis (%) ([1]; D 1): 4.54%
Morphometric quantification of elastic fibers in the superficial dermis (%) ([1]; D 1): 3.8%
Morphometric quantification of elastic fibers in the middle dermis (%) ([1]; D 5): 8.67%
Morphometric quantification of elastic fibers in the superficial dermis (%) ([1]; D 5): 4.03%
% of Ki67 positive cells in the basal layer of the epidermis ([2]; D 1): 31.97%
% of Ki67 positive cells in the basal layer of the epidermis ([2]; D 5): 5.04%
number of mitotic cells compared to EGF at day 1 [2]: an increase

VLLEQQEQEPQH [0723.05]
Morphometric quantification of elastic fibers in the middle dermis (%) ([1]; D 1): 8.8%
Morphometric quantification of elastic fibers in the superficial dermis (%) ([1]; D 1): 6.34%
Morphometric quantification of elastic fibers in the middle dermis (%) ([1]; D 5): 6.61%
Morphometric quantification of elastic fibers in the superficial dermis (%) ([1]; D 5): 6.26%
% of Ki67 positive cells in the basal layer of the epidermis ([2]; D 1): 9.48%
% of Ki67 positive cells in the basal layer of the epidermis ([2]; D 5): 3.08%
